From ChEMBL document CHEMBL3526061, “Glucuronidation of edaravone by human liver and kidney microsomes: biphasic kinetics and identification of UGT1A9 as the major UDP-glucuronosyltransferase isoform” (Drug Metab Dispos, 2012)

Legend:
Type in all cases: ADME
[1] = tested on: Liver microsome; assay: Drug metabolism in human liver microsomes assessed as drug glucuronidation in presence of 50 estradiol by LC-MS/MS method
[2] = target: T1, UDP-glucuronosyltransferase 1A9 (Homo sapiens, UniProt O60656); assay: Activity of human recombinant UGT1A9 expressed in insect cells assessed as intrinsic clearance for enzyme mediated glucuronidation per mg protein by LC-MS/MS method
T1 sequence (O60656 whole entry): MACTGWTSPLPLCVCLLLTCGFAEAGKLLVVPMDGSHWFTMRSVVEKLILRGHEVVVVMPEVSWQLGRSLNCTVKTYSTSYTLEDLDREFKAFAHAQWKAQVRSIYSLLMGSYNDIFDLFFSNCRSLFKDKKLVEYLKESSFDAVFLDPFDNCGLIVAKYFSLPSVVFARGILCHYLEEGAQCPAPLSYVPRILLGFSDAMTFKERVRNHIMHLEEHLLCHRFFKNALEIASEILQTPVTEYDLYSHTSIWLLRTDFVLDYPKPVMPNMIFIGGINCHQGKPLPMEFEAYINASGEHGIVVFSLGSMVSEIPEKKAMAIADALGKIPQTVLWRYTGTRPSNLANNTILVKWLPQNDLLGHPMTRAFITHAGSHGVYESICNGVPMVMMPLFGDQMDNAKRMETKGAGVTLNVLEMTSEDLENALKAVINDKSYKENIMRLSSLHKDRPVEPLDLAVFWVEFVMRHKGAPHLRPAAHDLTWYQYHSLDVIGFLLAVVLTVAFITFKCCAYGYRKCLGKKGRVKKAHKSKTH

[3] = target: T2, UDP-glucuronosyltransferase 2B7 (Homo sapiens, UniProt P16662); assay: Activity of human recombinant UGT2B7 expressed in insect cells assessed as enzyme mediated glucuronidation at 500 uM by LC-MS/MS method
T2 sequence (P16662 whole entry): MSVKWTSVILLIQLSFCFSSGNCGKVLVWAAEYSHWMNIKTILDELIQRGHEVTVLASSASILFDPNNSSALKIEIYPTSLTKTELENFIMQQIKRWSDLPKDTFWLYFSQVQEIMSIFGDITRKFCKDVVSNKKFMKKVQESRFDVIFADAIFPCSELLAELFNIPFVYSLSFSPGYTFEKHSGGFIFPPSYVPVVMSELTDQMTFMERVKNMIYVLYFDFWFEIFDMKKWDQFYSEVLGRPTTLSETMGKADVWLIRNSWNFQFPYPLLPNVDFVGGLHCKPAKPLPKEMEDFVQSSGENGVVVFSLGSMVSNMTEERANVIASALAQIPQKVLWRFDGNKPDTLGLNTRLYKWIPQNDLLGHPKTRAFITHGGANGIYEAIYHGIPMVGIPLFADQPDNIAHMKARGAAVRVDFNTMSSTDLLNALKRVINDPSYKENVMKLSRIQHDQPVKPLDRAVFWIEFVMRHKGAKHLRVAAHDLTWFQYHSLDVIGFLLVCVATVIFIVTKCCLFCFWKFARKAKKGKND

[4] = Drug metabolism in human kidney microsomes assessed as drug glucuronidation per mg tissue in presence of BSA by LC-MS/MS method
[5] = target: T3, UDP-glucuronosyltransferase 2B17 (Homo sapiens, UniProt O75795); assay: Activity of human recombinant UGT2B17 expressed in insect cells assessed as enzyme mediated glucuronidation in presence of 5 to 35 uM androsterone by LC-MS/MS method
T3 sequence (O75795 whole entry): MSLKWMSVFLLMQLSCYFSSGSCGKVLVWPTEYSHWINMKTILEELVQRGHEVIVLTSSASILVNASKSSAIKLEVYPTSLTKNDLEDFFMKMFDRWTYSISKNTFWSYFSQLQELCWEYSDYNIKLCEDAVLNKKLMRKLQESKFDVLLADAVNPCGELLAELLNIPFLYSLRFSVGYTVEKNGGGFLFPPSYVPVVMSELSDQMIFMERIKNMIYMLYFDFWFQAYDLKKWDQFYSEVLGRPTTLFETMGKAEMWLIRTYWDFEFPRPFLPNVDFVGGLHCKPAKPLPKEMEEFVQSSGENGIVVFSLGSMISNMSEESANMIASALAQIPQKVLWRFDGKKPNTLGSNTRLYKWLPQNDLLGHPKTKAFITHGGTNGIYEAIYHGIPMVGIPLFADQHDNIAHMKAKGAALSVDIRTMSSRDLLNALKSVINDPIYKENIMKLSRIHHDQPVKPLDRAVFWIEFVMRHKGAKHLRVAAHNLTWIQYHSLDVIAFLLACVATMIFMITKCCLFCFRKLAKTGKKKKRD

[6] = target: T4, UDP-glucuronosyltransferase 1A7 (Homo sapiens, UniProt Q9HAW7); assay: Activity of human recombinant UGT1A7 expressed in insect cells assessed as enzyme mediated glucuronidation at 12.5 uM by LC-MS/MS method
T4 sequence (Q9HAW7 whole entry): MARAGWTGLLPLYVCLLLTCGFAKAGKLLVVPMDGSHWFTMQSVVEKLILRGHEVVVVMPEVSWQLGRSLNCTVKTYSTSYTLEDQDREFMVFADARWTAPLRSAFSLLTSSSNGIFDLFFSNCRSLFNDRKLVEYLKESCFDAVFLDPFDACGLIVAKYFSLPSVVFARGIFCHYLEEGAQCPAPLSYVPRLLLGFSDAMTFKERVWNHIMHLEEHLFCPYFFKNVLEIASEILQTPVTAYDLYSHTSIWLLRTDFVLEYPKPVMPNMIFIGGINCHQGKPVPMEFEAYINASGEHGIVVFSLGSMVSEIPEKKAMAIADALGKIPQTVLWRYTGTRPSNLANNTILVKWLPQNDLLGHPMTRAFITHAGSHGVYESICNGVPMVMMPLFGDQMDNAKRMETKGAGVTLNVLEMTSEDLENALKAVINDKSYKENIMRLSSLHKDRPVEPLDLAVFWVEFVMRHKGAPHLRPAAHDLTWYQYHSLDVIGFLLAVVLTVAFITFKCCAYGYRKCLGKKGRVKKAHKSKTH

[7] = target: T3, UDP-glucuronosyltransferase 2B17; assay: Activity of human recombinant UGT2B17 expressed in insect cells assessed as intrinsic clearance for enzyme mediated glucuronidation per mg protein by LC-MS/MS method
[8] = Drug metabolism in human kidney microsomes assessed as drug glucuronidation per mg tissue in absence of BSA by LC-MS/MS method

With `CC1=NN(c2ccccc2)C(=O)C1` [EDARAVONE] the Drug metabolism [1] was “metabolite_not_detected”, the CL(high) [2] was 42.4 µL/min/mg and the CL(low) [2] was 0.8 µL/min/mg. The Drug metabolism [3] was “metabolite_detected”, the VmaxH [4] was 696 pmol/min/g and the VmaxL [4] was 5265 pmol/min/g. The Drug metabolism [5] was “metabolite_not_detected”, the Drug metabolism [6] was “metabolite_detected” and the CL [7] was 3.3 µL/min/g. For the same molecule, the VmaxH [8] was 336.5 pmol/min/g and the VmaxL [8] was 2396 pmol/min/g.
